Results from patent US10131652B2, “Pyrimidinyloxy benzene derivatives as herbicides” (E. I. DU PONT DE NEMOURS AND COMPANY, priority 2014, dated 2018).

Tests used:
Experiment in all cases: Test D pre-/postemergence plant response
Assay type in all cases: in vivo
[1] = tested on: blackgrass (Alopecurus myosuroides); conditions: Postemergence; for Blackgrass plant response rating: scale 0 to 100 (0 no effect, 100 complete control); for Plant response rating, Blackgrass: scale 0 to 100, 0 no effect, 100 complete control
Procedure, shortened: (§1)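 Pre-/post-emergence greenhouse test. Pre: seeded loam+sand, sprayed same day. Post: 1–4 leaf plants (2–18 cm), peat/vermiculite mix. Formulation: non-phytotoxic solvent + surfactant. Scored visually d13–15, 0–100 vs control.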

[2] = tested on: pigweed (Amaranthus retroflexus); conditions: Postemergence
Procedure, shortened: as §1

[3] = tested on: morningglory (Ipomoea coccinea); conditions: Postemergence
Procedure, shortened: as §1

corn (Zea mays) = conditions: Postemergence; for Corn plant response rating: scale 0 to 100 (0 no effect, 100 complete control); for Plant response rating, Corn: scale 0 to 100, 0 no effect, 100 complete control
Procedure, shortened: as §1

soybean (Glycine max) = conditions: Postemergence
Procedure, shortened: as §1

[4] = tested on: ragweed (common ragweed, Ambrosia elatior); conditions: Postemergence
Procedure, shortened: as §1

[5] = tested on: winter wheat (Triticum aestivum); conditions: Postemergence
Procedure, shortened: as §1

[6] = tested on: waterhemp (common waterhemp, Amaranthus rudis); conditions: Postemergence
Procedure, shortened: as §1

[7] = tested on: large (Lg) crabgrass (Digitaria sanguinalis); conditions: Postemergence; for Crabgrass, Large plant response rating: scale 0 to 100 (0 no effect, 100 complete control); for Plant response rating, Crabgrass, Large: scale 0 to 100, 0 no effect, 100 complete control
Procedure, shortened: as §1

[8] = tested on: giant foxtail (Setaria faberii); conditions: Postemergence; for Foxtail, Giant plant response rating: scale 0 to 100 (0 no effect, 100 complete control); for Plant response rating, Foxtail, Giant: scale 0 to 100, 0 no effect, 100 complete control
Procedure, shortened: as §1

[9] = tested on: Italian ryegrass (Lolium multiflorum); conditions: Postemergence
Procedure, shortened: as §1

[10] = tested on: lambsquarters (Chenopodium album); conditions: Postemergence
Procedure, shortened: as §1

[11] = tested on: yellow nutsedge (Cyperus esculentus); conditions: Postemergence
Procedure, shortened: as §1

[12] = tested on: galium (catchweed bedstraw, Galium aparine); conditions: Postemergence; for Galium plant response rating: 31 g ai/ha, scale 0 to 100 (0 no effect, 100 complete control); for Plant response rating, Galium: scale 0 to 100, 0 no effect, 100 complete control
Procedure, shortened: as §1

[13] = tested on: oilseed rape (Brassica napus); conditions: Postemergence
Procedure, shortened: as §1

[14] = tested on: velvetleaf (Abutilon theophrasti); conditions: Postemergence
Procedure, shortened: as §1

[15] = tested on: johnsongrass (Sorghum halepense); conditions: Postemergence; for Johnsongrass plant response rating: 31 g ai/ha, scale 0 to 100 (0 no effect, 100 complete control); for Plant response rating, Johnsongrass: scale 0 to 100, 0 no effect, 100 complete control
Procedure, shortened: as §1

[16] = tested on: barnyardgrass (Echinochloa crus-galli); conditions: Postemergence; for Barnyardgrass plant response rating: scale 0 to 100 (0 no effect, 100 complete control); for Plant response rating, Barnyardgrass: scale 0 to 100, 0 no effect, 100 complete control
Procedure, shortened: as §1

[17] = 31 g ai/ha, scale 0 to 100 (0 no effect, 100 complete control)
[18] = 62 g ai/ha, scale 0 to 100, 0 no effect, 100 complete control
[19] = 125 g ai/ha, scale 0 to 100, 0 no effect, 100 complete control

Compound: FC(F)(F)c1cc(-c2c(Br)cccc2Oc2ncc(Cl)cn2)no1 [Compound 170]
- Blackgrass plant response rating ([1]; 16 g ai/ha): 0
- Blackgrass plant response rating ([1]; 31 g ai/ha): 0
- Plant response rating, Blackgrass ([1]; 62 g ai/ha): 5
- Plant response rating, Blackgrass ([1]; 125 g ai/ha): 5
- Pigweed plant response rating [2, 17]: 90
- Plant response rating, Pigweed [2, 18]: 98
- Plant response rating, Pigweed [2, 19]: 98
- Morningglory plant response rating [3, 17]: 30
- Plant response rating, Morningglory [3, 18]: 70
- Plant response rating, Morningglory [3, 19]: 98
- Corn plant response rating (corn (Zea mays); 16 g ai/ha): 5
- Corn plant response rating (corn (Zea mays); 31 g ai/ha): 5
- Plant response rating, Corn (corn (Zea mays); 62 g ai/ha): 5
- Plant response rating, Corn (corn (Zea mays); 125 g ai/ha): 5
- Soybean plant response rating (soybean (Glycine max); [17]): 10
- Plant response rating, Soybean (soybean (Glycine max); [18]): 10
- Plant response rating, Soybean (soybean (Glycine max); [19]): 35
- Ragweed plant response rating [4, 17]: 5
- Plant response rating, Ragweed [4, 18]: 10
- Plant response rating, Ragweed [4, 19]: 10
- Wheat plant response rating [5, 17]: 20
- Plant response rating, Wheat [5, 18]: 10
- Plant response rating, Wheat [5, 19]: 15
- Waterhemp plant response rating [6, 17]: 80
- Plant response rating, Waterhemp [6, 18]: 100
- Plant response rating, Waterhemp [6, 19]: 85
- Crabgrass, Large plant response rating ([7]; 16 g ai/ha): 5
- Crabgrass, Large plant response rating ([7]; 31 g ai/ha): 5
- Plant response rating, Crabgrass, Large ([7]; 62 g ai/ha): 5
- Plant response rating, Crabgrass, Large ([7]; 125 g ai/ha): 10
- Foxtail, Giant plant response rating ([8]; 16 g ai/ha): 5
- Foxtail, Giant plant response rating ([8]; 31 g ai/ha): 30
- Plant response rating, Foxtail, Giant ([8]; 62 g ai/ha): 40
- Plant response rating, Foxtail, Giant ([8]; 125 g ai/ha): 40
- Ryegrass, Italian plant response rating [9, 17]: 0
- Plant response rating, Ryegrass, Italian [9, 18]: 5
- Plant response rating, Ryegrass, Italian [9, 19]: 5
- Lambsquarters plant response rating [10, 17]: 40
- Plant response rating, Lambsquarters [10, 18]: 40
- Plant response rating, Lambsquarters [10, 19]: 80
- Nutsedge, Yellow plant response rating [11, 17]: 5
- Plant response rating, Nutsedge, Yellow [11, 18]: 5
- Plant response rating, Nutsedge, Yellow [11, 19]: 10
- Galium plant response rating [12]: 50
- Plant response rating, Galium ([12]; 62 g ai/ha): 65
- Plant response rating, Galium ([12]; 125 g ai/ha): 80
- Oilseed Rape plant response rating [13, 17]: 5
- Plant response rating, Oilseed Rape [13, 18]: 40
- Plant response rating, Oilseed Rape [13, 19]: 25
- Velvetleaf plant response rating [14, 17]: 5
- Plant response rating, Velvetleaf [14, 18]: 25
- Plant response rating, Velvetleaf [14, 19]: 25
- Johnsongrass plant response rating [15]: 0
- Plant response rating, Johnsongrass ([15]; 62 g ai/ha): 0
- Plant response rating, Johnsongrass ([15]; 125 g ai/ha): 5
- Barnyardgrass plant response rating ([16]; 16 g ai/ha): 0
- Barnyardgrass plant response rating ([16]; 31 g ai/ha): 0
- Plant response rating, Barnyardgrass ([16]; 62 g ai/ha): 5
- Plant response rating, Barnyardgrass ([16]; 125 g ai/ha): 5

Compound: Clc1cnc(Oc2ccccc2-c2cc(Cl)sn2)nc1 [Compound 192]
- Plant response rating (scale 0 to 100), Blackgrass ([1]; 16 g ai/ha): 0
- Blackgrass plant response rating ([1]; 31 g ai/ha): 0
- Plant response rating, Blackgrass ([1]; 62 g ai/ha): 0
- Plant response rating, Blackgrass ([1]; 125 g ai/ha): 5
- Plant response rating (scale 0 to 100), Pigweed ([2]; 16 g ai/ha): 15
- Pigweed plant response rating [2, 17]: 20
- Pigweed plant response rating [2, 18]: 55
- Plant response rating, Pigweed [2, 19]: 55
- Plant response rating (scale 0 to 100), Morningglory ([3]; 16 g ai/ha): 0
- Morningglory plant response rating [3, 17]: 0
- Morningglory plant response rating [3, 18]: 10
- Plant response rating, Morningglory [3, 19]: 45
- Plant response rating (scale 0 to 100), Corn (corn (Zea mays); 16 g ai/ha): 0
- Corn plant response rating (corn (Zea mays); 31 g ai/ha): 0
- Plant response rating, Corn (corn (Zea mays); 62 g ai/ha): 5
- Plant response rating, Corn (corn (Zea mays); 125 g ai/ha): 10
- Plant response rating (scale 0 to 100), Soybean (soybean (Glycine max); 16 g ai/ha): 10
- Soybean plant response rating (soybean (Glycine max); [17]): 30
- Soybean plant response rating (soybean (Glycine max); [18]): 55
- Plant response rating, Soybean (soybean (Glycine max); [19]): 85
- Plant response rating (scale 0 to 100), Ragweed ([4]; 16 g ai/ha): 0
- Ragweed plant response rating [4, 17]: 5
- Ragweed plant response rating [4, 18]: 15
- Plant response rating, Ragweed [4, 19]: 45
- Plant response rating (scale 0 to 100), Wheat ([5]; 16 g ai/ha): 0
- Wheat plant response rating [5, 17]: 0
- Wheat plant response rating [5, 18]: 5
- Plant response rating, Wheat [5, 19]: 5
- Plant response rating (scale 0 to 100), Waterhemp ([6]; 16 g ai/ha): 20
- Waterhemp plant response rating [6, 17]: 40
- Waterhemp plant response rating [6, 18]: 55
- Plant response rating, Waterhemp [6, 19]: 70
- Plant response rating (scale 0 to 100), Crabgrass, Large ([7]; 16 g ai/ha): 5
- Crabgrass, Large plant response rating ([7]; 31 g ai/ha): 5
- Plant response rating, Crabgrass, Large ([7]; 62 g ai/ha): 10
- Plant response rating, Crabgrass, Large ([7]; 125 g ai/ha): 10
- Plant response rating (scale 0 to 100), Foxtail, Giant ([8]; 16 g ai/ha): 10
- Foxtail, Giant plant response rating ([8]; 31 g ai/ha): 25
- Plant response rating, Foxtail, Giant ([8]; 62 g ai/ha): 25
- Plant response rating, Foxtail, Giant ([8]; 125 g ai/ha): 15
- Plant response rating (scale 0 to 100), Ryegrass, Italian ([9]; 16 g ai/ha): 0
- Ryegrass, Italian plant response rating [9, 17]: 0
- Ryegrass, Italian plant response rating [9, 18]: 0
- Plant response rating, Ryegrass, Italian [9, 19]: 0
- Plant response rating (scale 0 to 100), Lambsquarters ([10]; 16 g ai/ha): 35
- Lambsquarters plant response rating [10, 17]: 50
- Lambsquarters plant response rating [10, 18]: 40
- Plant response rating, Lambsquarters [10, 19]: 75
- Plant response rating (scale 0 to 100), Nutsedge, Yellow ([11]; 16 g ai/ha): 0
- Nutsedge, Yellow plant response rating [11, 17]: 5
- Nutsedge, Yellow plant response rating [11, 18]: 0
- Plant response rating, Nutsedge, Yellow [11, 19]: 5
- Plant response rating (scale 0 to 100), Galium ([12]; 16 g ai/ha): 35
- Galium plant response rating [12]: 50
- Plant response rating, Galium ([12]; 62 g ai/ha): 50
- Plant response rating, Galium ([12]; 125 g ai/ha): 50
- Plant response rating (scale 0 to 100), Oilseed Rape ([13]; 16 g ai/ha): 0
- Oilseed Rape plant response rating [13, 17]: 0
- Oilseed Rape plant response rating [13, 18]: 5
- Plant response rating, Oilseed Rape [13, 19]: 50
- Plant response rating (scale 0 to 100), Velvetleaf ([14]; 16 g ai/ha): 20
- Velvetleaf plant response rating [14, 17]: 20
- Velvetleaf plant response rating [14, 18]: 30
- Plant response rating, Velvetleaf [14, 19]: 55
- Plant response rating (scale 0 to 100), Johnsongrass ([15]; 16 g ai/ha): 0
- Johnsongrass plant response rating [15]: 5
- Plant response rating, Johnsongrass ([15]; 62 g ai/ha): 5
- Plant response rating, Johnsongrass ([15]; 125 g ai/ha): 5
- Plant response rating (scale 0 to 100), Barnyardgrass ([16]; 16 g ai/ha): 5
- Barnyardgrass plant response rating ([16]; 31 g ai/ha): 5
- Plant response rating, Barnyardgrass ([16]; 62 g ai/ha): 5
- Plant response rating, Barnyardgrass ([16]; 125 g ai/ha): 5
